Where only a bound is given, the exact number is not on record here.

Experimental findings from patent US7960436B2, “Substituted arylamino-1,2,3,4-tetrahydro naphthalenes and-2,3-dihydro-1H-indenes as potassium channel modulators” (Valeant Pharmaceuticals International, priority 2006, dated 2011) are described below.

The subject of this assay is potassium ion channels. Description: Rubidium (Rb+) efflux assay in NGF-differentiated PC-12 cells. In kind it is cell-based. As to conditions: depolarization buffer with 15 mM KCl, 10 min at room temperature, read-out: EC50 (compound's concentration for 50% of maximal Rb+ efflux). How it is done:
Several typical compounds of this invention were assayed as potassium channel modulators by measuring rhubidium release.
Methods: PC-12 cells were grown at 37° C. and 5% CO2 in DMEM/F12 Medium supplemented with 10% horse serum, 5% fetal bovine serum, 2 mM glutamine, 100 U/ml penicillin, 100 U/ml streptomycin. They were plated in poly-D-lysine-coated 96-well cell culture microplates at a density of 40,000 cells/well and differentiated with 100 ng/ml NGF-7s for 2-5 days. For the assay, the medium was aspirated and the cells were washed once with 0.2 ml in wash buffer (25 mM HEPES, pH 7.4, 150 mM NaCl, 1 mM MgCl2, 0.8 mM NaH2PO4, 2 mM CaCl2). The cells were then loaded with 0.2 ml Rb^+ loading buffer (wash buffer plus 5.4 mM […], 5 mM glucose) and incubated at 37° C. for 2 h. Attached cells were quickly washed three times with buffer (same as Rb^+ loading buffer, but containing 5.4 mM KCl instead of RbCl) to remove extracellular Rb^+. Immediately following the wash, 0.2 ml of depolarization buffer (wash buffer plus 15 mM KCl) with or without compounds was added to the cells to activate efflux of potassium ion channels. After incubation for 10 min at room temperature, the supernatant was carefully removed and collected. Cells were lysed by the addition of 0.2 ml of lysis buffer (depolarization buffer plus 0.1% Triton X-100) and the cell lysates were also collected. If collected samples were not immediately analyzed for Rb^+ contents by atomic absorption spectroscopy (see below), they were stored at 4° C. without any negative effects on subsequent Rb^+ analysis.
The concentration of Rb^+ in the supernatants (Rb^+Sup) and cell lysates (Rb^+Lys) was quantified using an ICR8000 flame atomic absorption spectrometer (Aurora Biomed Inc., Vancouver, B.C.) under conditions defined by the manufacturer. One 0.05 ml samples were processed automatically from microtiter plates by dilution with an equal volume of Rb^+ sample analysis buffer and injection into an air-acetylene flame. The amount of Rb^+ in the sample was measured by absorption at 780 nm using a hollow cathode lamp as light source and a PMT detector. A calibration curve covering the range 0-5 mg/L Rb^+ in sample analysis buffer was generated with each set of plates. The percent Rb^+ efflux (F) was defined by F=[Rb^+Sup/(Rb^+Sup+Rb^+Lys)]×100% The effect (E) of a compound was defined by: E=[(Fc−Fb)/(Fs−Fb)]×100% where the Fc is the efflux in the presence of compound in depolarization buffer, Fb is the efflux in basal buffer, and Fs is the efflux in depolarization buffer, and. The effect (E) and compound concentration relationship was plotted to calculate an EC50 value, a compound's concentration for 50% of maximal Rb^+ efflux.

Consider `CCOC(=O)Nc1ccc2c(c1N)CCCC2Nc1ccc(C(F)(F)F)cc1` (stereo not shown), for which the EC50 was more than 5000 nM.

Turning to `CCOC(=O)Nc1cc2c(cc1N)C(Nc1ccc(C(F)(F)F)cc1)CCC2` (stereo not shown), the EC50 was more than 5000 nM.

As to `CC(C)(C)CC(=O)Nc1cc2c(cc1N)C(Nc1ccc(C(F)(F)F)cc1)CC2` (stereo not shown), the EC50 was less than 500 nM.

Turning to `CC(C)(C)CC(=O)Nc1cc2c(cc1N)C(Nc1ccc(F)cc1)CC2` (stereo not shown), the EC50 was in the range of 500 to 5000 nM.

For the molecule `CCOC(=O)Nc1ccc2c(c1N)CCC2Nc1ccc(F)cc1` (stereo not shown), the EC50 lay within 500 to 5000 nM.

In the case of `Nc1cc2c(cc1NC(=O)CCC1CCCC1)CCC2Nc1ccc(C(F)(F)F)cc1` (stereo not shown), the EC50 was less than 500 nM.

`Nc1cc2c(cc1NC(=O)CCC1CCCC1)CCC2Nc1ccc(F)cc1` (stereo not shown): the EC50 is less than 500 nM.
